Among the test systems are SR leukemia; OVCAR-8 ovarian; NCI-H522 lung; PC-3 prostate; CAKI-1 renal; SK-MEL-5 melanoma; COLO 205 colon; MCF7 breast; HCT-116 colon; MDA-MB-435.
Assay in all cases: NCI tumour cell line growth inhibition, 48 h

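Briefly, cells in 96-well plates were exposed to five compound concentrations for 48 h, and endpoints were estimated by linear interpolation. GI50 = concentration required for 50% inhibition of growth. TGI is the concentration that stops growth completely.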 Some results are limits rather than exact numbers.

Regarding `O=C1NC(=NCc2ccccc2Cl)S/C1=C\c1ccc2ncccc2c1`, the GI50 in the test on SR leukemia was 1.04 µM; with OVCAR-8 ovarian, greater than 25 µM; in the test on NCI-H522 lung it was 4.75 µM; in the test on PC-3 prostate, greater than 25 µM; with CAKI-1 renal, 4.83 µM; in the test on SK-MEL-5 melanoma, 22.4 µM. Moreover, the GI50 with COLO 205 colon was 8.04 µM; in the test on MCF7 breast it was 9.2 µM; in the test on HCT-116 colon, 3.98 µM; in the test with MDA-MB-435 it was 6.83 µM. Further, the TGI in the test on SR leukemia was greater than 19.6 µM; in the test on OVCAR-8 ovarian, greater than 25 µM; in the test with NCI-H522 lung it was greater than 17.9 µM; in the test on PC-3 prostate, greater than 25 µM; in the test with CAKI-1 renal it was greater than 19.5 µM; in the test with SK-MEL-5 melanoma, greater than 25 µM. The TGI in the test with COLO 205 colon, in the test with MCF7 breast, in the test on HCT-116 colon and in the test on MDA-MB-435 was greater than 25 µM throughout.
In the case of `COc1cc(-c2cc(/C=C/C(=O)c3ccc(F)c(F)c3)[nH]n2)cc(OC)c1OC`, the GI50 is 2.92 µM in the test with SR leukemia; 2.88 µM with OVCAR-8 ovarian; 1.57 µM in the test with NCI-H522 lung; 1.66 µM in the test with PC-3 prostate; 2.98 µM in the test on CAKI-1 renal; 2.27 µM with SK-MEL-5 melanoma. The GI50 in the test on COLO 205 colon is 1.69 µM; in the test with MCF7 breast it was 3.2 µM; in the test on HCT-116 colon, 4 µM; in the test on MDA-MB-435, 2.88 µM. The TGI with SR leukemia was greater than 100 µM; with OVCAR-8 ovarian, 17.3 µM; with NCI-H522 lung it was 4.48 µM; with PC-3 prostate, 5.72 µM; with CAKI-1 renal, greater than 100 µM; in the test on SK-MEL-5 melanoma it was 6.41 µM. Also, the TGI in the test with COLO 205 colon came out at 3.19 µM; in the test on MCF7 breast it was 12.3 µM; in the test with HCT-116 colon, 13.9 µM; in the test on MDA-MB-435 it was 13.3 µM.
Take `Cc1cc(=O)oc2ccc(OC/C=C3\CCC(=O)O3)cc12`: the GI50 in the test with OVCAR-8 ovarian was 10 µM; in the test with NCI-H522 lung, 1.65 µM; with PC-3 prostate it was 3.59 µM; with CAKI-1 renal, 2.72 µM; in the test on SK-MEL-5 melanoma, 16.4 µM; with COLO 205 colon, 2.17 µM. In addition, the GI50 in the test on MCF7 breast is 2.36 µM; in the test with HCT-116 colon it was 3.82 µM; in the test on MDA-MB-435, 7.65 µM. Besides, the TGI with OVCAR-8 ovarian was 25 µM; with NCI-H522 lung it was 3.57 µM; with PC-3 prostate, 21.2 µM; in the test on CAKI-1 renal, 14.8 µM; in the test with SK-MEL-5 melanoma it was 32.5 µM; in the test with COLO 205 colon, 7.24 µM. Besides, the figures for the TGI in the test on MCF7 breast, in the test with HCT-116 colon and in the test with MDA-MB-435 were 13.3 µM, 15.1 µM and 22.8 µM, respectively.
On to `CC1CC2C3CCC4=CC(=O)C=CC4(C)C3(F)C(O)CC2(C)C1(O)C(=O)COP(=O)(O)O` (stereo not drawn), for which the TGI in the test with SR leukemia was greater than 100 µM; with OVCAR-8 ovarian, greater than 500 µM; in the test on NCI-H522 lung, greater than 500 µM; with PC-3 prostate, greater than 500 µM; in the test with CAKI-1 renal, greater than 500 µM; with SK-MEL-5 melanoma, greater than 500 µM. Besides, the TGI in the test on COLO 205 colon, in the test on MCF7 breast, in the test with HCT-116 colon and in the test on MDA-MB-435 was greater than 500 µM in each case. Also, the GI50 in the test with OVCAR-8 ovarian, with NCI-H522 lung, in the test on PC-3 prostate, in the test with CAKI-1 renal, in the test on SK-MEL-5 melanoma and with COLO 205 colon was greater than 500 µM throughout. For the same compound, the GI50 in the test with MCF7 breast, with HCT-116 colon and with MDA-MB-435 was greater than 500 µM throughout.
For the compound `CCN1CCN(c2nc(C)cc(N(CCCNc3ccnc4cc(Cl)ccc34)Cc3ccc4c(c3)OCO4)n2)CC1`, the GI50 in the test with SR leukemia was 0.339 µM; with OVCAR-8 ovarian, 2.12 µM; with NCI-H522 lung it was 1.66 µM; in the test with PC-3 prostate, 2.43 µM; with SK-MEL-5 melanoma it was 1.66 µM; with COLO 205 colon, 1.7 µM. The GI50 in the test on MCF7 breast was 1.58 µM; with HCT-116 colon, 1.1 µM; in the test on MDA-MB-435 it was 1.56 µM. Moreover, the TGI came out at 1.58 µM with SR leukemia; 6.06 µM in the test on OVCAR-8 ovarian; 3.39 µM with NCI-H522 lung; 11 µM with PC-3 prostate; 3.05 µM with SK-MEL-5 melanoma; 3.46 µM in the test on COLO 205 colon. For the same compound, the TGI in the test with MCF7 breast came to 10.2 µM; with HCT-116 colon, 3.02 µM; with MDA-MB-435, 3.06 µM.
For `COc1cc(CNCCCCCCN2C(=O)c3cccc4cccc(c34)C2=O)ccc1O`, the GI50 is 2.36 µM with SR leukemia; 4.73 µM in the test with OVCAR-8 ovarian; 2.32 µM with NCI-H522 lung; 4.42 µM in the test with PC-3 prostate; 8.44 µM in the test with CAKI-1 renal; 2 µM in the test with SK-MEL-5 melanoma. The GI50 in the test with COLO 205 colon was 2.54 µM; with MCF7 breast, 1.74 µM; in the test on HCT-116 colon, 3.14 µM; with MDA-MB-435, 3.89 µM. The TGI with SR leukemia came out at 7.8 µM; with OVCAR-8 ovarian, 21.3 µM; with NCI-H522 lung, 7.97 µM; with PC-3 prostate, 18.7 µM; in the test on CAKI-1 renal, 26.9 µM; in the test with SK-MEL-5 melanoma, 5.92 µM. For the same compound, the TGI came out at 6.62 µM with COLO 205 colon, 3.45 µM in the test with MCF7 breast, 11.2 µM in the test on HCT-116 colon and 15.9 µM in the test on MDA-MB-435.
Take `O=C(O)C1=C/C(=C(/c2ccccc2)c2cc(C(=O)O)c(O)c3ccccc23)c2ccccc2C1=O`: the TGI in the test with SR leukemia, in the test on OVCAR-8 ovarian, with NCI-H522 lung, in the test on PC-3 prostate, in the test on CAKI-1 renal and in the test with SK-MEL-5 melanoma was greater than 100 µM in each case. For the same compound, the TGI in the test with COLO 205 colon, in the test with MCF7 breast, with HCT-116 colon and in the test on MDA-MB-435 was greater than 100 µM each time.
`COc1ccc2nc3cc(Cl)ccc3c(NCCCNCCO)c2c1`: the GI50 was 0.415 µM in the test on OVCAR-8 ovarian; 0.379 µM in the test with NCI-H522 lung; 0.544 µM with PC-3 prostate; 0.816 µM in the test on CAKI-1 renal; 1.55 µM with SK-MEL-5 melanoma; 0.241 µM in the test on COLO 205 colon. Moreover, the figures for the GI50 in the test on MCF7 breast, in the test on HCT-116 colon and with MDA-MB-435 were 0.355 µM, 0.326 µM and 0.522 µM, respectively. The TGI in the test on OVCAR-8 ovarian came to 2.45 µM; in the test on NCI-H522 lung, 1.63 µM; in the test on PC-3 prostate it was 2.54 µM; with CAKI-1 renal, 3.55 µM; with SK-MEL-5 melanoma, 2.93 µM; in the test with COLO 205 colon, 1.14 µM. Moreover, the TGI with MCF7 breast was 2.06 µM; with HCT-116 colon, 1.43 µM; in the test on MDA-MB-435 it was 1.88 µM.

These data come from PubChem BioAssay (NCI).
